Test results published in patent US20100267561A1, “HERBICIDAL PYRIDAZINONE DERIVATIVES” (priority 2007, published 2010).

Legend:
Type in all cases: in vivo
[1] = test system: windgrass (Apera spica-venti); experiment: Test B postemergence plant response; conditions: for Windgrass plant response rating: postemergence, 0-100 scale; for Plant response rating, Windgrass: Postemergence
How it was run: (§1)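 Visual injury ratings on a 0–100 scale, where 100 means complete control, were made 13 to 15 days after postemergence treatment of greenhouse-grown plants at the 1- to 4-leaf stage.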

[2] = test system: canarygrass (Phalaris minor); experiment: Test B postemergence plant response; conditions: for Canarygrass plant response rating: postemergence, 0-100 scale; for Plant response rating, Canarygrass: Postemergence
How it was run: as §1

[3] = test system: chickweed (Stellaria media); experiment: Test B postemergence plant response; conditions: for Chickweed plant response rating: postemergence, 0-100 scale; for Plant response rating, Chickweed: Postemergence
How it was run: as §1

[4] = test system: winter barley (Hordeum vulgare); experiment: Test B postemergence plant response; conditions: for Barley plant response rating: postemergence; for Plant response rating, Barley: Postemergence, scale 0 to 100, 0 no effect, 100 complete control
How it was run: as §1

[5] = test system: barnyardgrass (Echinochloa crus-galli); experiment: Test A pre-/postemergence plant response
How it was run: (§2)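 Greenhouse pot test: loam–sand soil; pre- and postemergence sprays applied same day; post plants 2–10 cm, 1–2 leaves. Readout ~10 d, visual % injury vs untreated (0 = none, 100 = complete control).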

[6] = test system: giant foxtail (Setaria faberi); experiment: Test A pre-/postemergence plant response
How it was run: as §2

corn (Zea mays) = experiment: Test A pre-/postemergence plant response
How it was run: as §2

[7] = test system: large crabgrass (Digitaria sanguinalis); experiment: Test A pre-/postemergence plant response
How it was run: as §2

[8] = test system: wheat (Triticum aestivum); experiment: Test B pre-/postemergence plant response
How it was run: (§3)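 Visual scoring from 0 (no effect) to 100 (complete control) against untreated controls was done 13 to 15 days after greenhouse treatment. Chemicals were formulated in a surfactant-containing non-phytotoxic solvent and applied to soil preemergence or to 1- to 4-leaf (2-18 cm) plants postemergence.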

[9] = test system: yellow nutsedge (Cyperus esculentus); experiment: Test B pre-/postemergence plant response
How it was run: as §3

wild oat (Avena fatua) = experiment: Test B pre-/postemergence plant response
How it was run: as §3

[10] = 62 g ai/ha, scale 0 to 100, 0 no effect, 100 complete control
[11] = 16 g ai/ha, 0-100 scale (0 no effect, 100 complete control)
[12] = Postemergence, 31 g ai/ha, 0 to 100 scale, 0 no effect, 100 complete control
[13] = Postemergence, 125 g ai/ha, 0 to 100 scale, 0 no effect, 100 complete control
[14] = Preemergence, 31 g ai/ha, 0 to 100 scale, 0 is no effect, 100 is complete control
[15] = Preemergence, 125 g ai/ha, 0 to 100 scale (0 no effect, 100 complete control)
[16] = 8 g ai/ha, postemergence, 0-100 scale
[17] = 16 g ai/ha, postemergence, 0-100 scale
[18] = Postemergence, 31 g ai/ha, scale 0 to 100
[19] = Postemergence, 62 g ai/ha, scale 0 to 100, 0 no effect, 100 complete control
[20] = Preemergence, 8 g ai/ha, scale 0 to 100 (0 no effect, 100 complete control)
[21] = Preemergence, 31 g ai/ha, scale 0 to 100 (0 no effect, 100 complete control)
[22] = Preemergence, 62 g ai/ha, 0 to 100 scale, 0 no effect, 100 complete control
[23] = Preemergence, 16 g ai/ha, scale 0 to 100

COc1nn(C)c(=O)c(-n2nc(-c3ccc(Br)cc3)cc2C)c1O [Compound 82]
Windgrass plant response rating ([1]; 8 g ai/ha): 70 | Windgrass plant response rating ([1]; 16 g ai/ha): 100 | Plant response rating, Windgrass ([1]; 31 g ai/ha, scale 0 to 100): 100 | Plant response rating, Windgrass [1, 10]: 100 | Canarygrass plant response rating ([2]; 8 g ai/ha): 80 | Canarygrass plant response rating ([2]; 16 g ai/ha): 95 | Plant response rating, Canarygrass ([2]; 31 g ai/ha, scale 0 to 100): 100 | Plant response rating, Canarygrass [2, 10]: 100 | Chickweed plant response rating ([3]; 8 g ai/ha): 0 | Chickweed plant response rating ([3]; 16 g ai/ha): 0 | Plant response rating, Chickweed ([3]; 31 g ai/ha, scale 0 to 100): 0 | Plant response rating, Chickweed [3, 10]: 90 | Barley plant response rating ([4]; 8 g ai/ha, 0-100 scale): 90 | Barley plant response rating [4, 11]: 98 | Plant response rating, Barley ([4]; 31 g ai/ha): 100 | Plant response rating, Barley ([4]; 62 g ai/ha): 100 | Plant response rating, Barnyardgrass [5, 12]: 100 | Plant response rating, Barnyardgrass [5, 13]: 100 | Plant response rating, Barnyardgrass [5, 14]: 50 | Plant response rating, Barnyardgrass [5, 15]: 100 | Plant response rating, Foxtail, Giant [6, 12]: 100 | Plant response rating, Foxtail, Giant [6, 13]: 100 | Plant response rating, Foxtail, Giant [6, 14]: 90 | Plant response rating, Foxtail, Giant [6, 15]: 100 | Plant response rating, Corn (corn (Zea mays); [12]): 80 | Plant response rating, Corn (corn (Zea mays); [13]): 100 | Plant response rating, Corn (corn (Zea mays); [14]): 40 | Plant response rating, Corn (corn (Zea mays); [15]): 50 | Plant response rating, Crabgrass, Large [7, 12]: 100 | Plant response rating, Crabgrass, Large [7, 13]: 100 | Plant response rating, Crabgrass, Large [7, 14]: 50 | Plant response rating, Crabgrass, Large [7, 15]: 100 | Wheat plant response rating [8, 16]: 85 | Wheat plant response rating [8, 17]: 98 | Plant response rating, Wheat [8, 18]: 100 | Plant response rating, Wheat [8, 19]: 100 | Wheat plant response rating [8, 20]: 0 | Plant response rating, Wheat [8, 21]: 98 | Plant response rating, Wheat [8, 22]: 100 | Wheat plant response rating [8, 23]: 65 | Nutsedge, Yellow plant response rating [9, 16]: 0 | Nutsedge, Yellow plant response rating [9, 17]: 0 | Plant response rating, Nutsedge, Yellow [9, 18]: 0 | Plant response rating, Nutsedge, Yellow [9, 19]: 0 | Nutsedge, Yellow plant response rating [9, 20]: 0 | Plant response rating, Nutsedge, Yellow [9, 21]: 0 | Plant response rating, Nutsedge, Yellow [9, 22]: 45 | Nutsedge, Yellow plant response rating [9, 23]: 0 | Oat, Wild plant response rating (wild oat (Avena fatua); [16]): 95 | Oat, Wild plant response rating (wild oat (Avena fatua); [17]): 95 | Plant response rating, Oat, Wild (wild oat (Avena fatua); [18]): 95 | Plant response rating, Oat, Wild (wild oat (Avena fatua); [19]): 100 | Oat, Wild plant response rating (wild oat (Avena fatua); [20]): 0 | Plant response rating, Oat, Wild (wild oat (Avena fatua); [21]): 80 | Plant response rating, Oat, Wild (wild oat (Avena fatua); [22]): 80 | Oat, Wild plant response rating (wild oat (Avena fatua); [23]): 60

CCc1c(C)c(-c2ccc(Br)cc2)nn1-c1c(O)cnn(C)c1=O [Compound 83]
Windgrass plant response rating ([1]; 8 g ai/ha): 90 | Windgrass plant response rating ([1]; 16 g ai/ha): 98 | Plant response rating, Windgrass ([1]; 31 g ai/ha, scale 0 to 100): 100 | Plant response rating, Windgrass [1, 10]: 100 | Canarygrass plant response rating ([2]; 8 g ai/ha): 65 | Plant response rating, Canarygrass ([2]; 31 g ai/ha, scale 0 to 100): 90 | Plant response rating, Canarygrass [2, 10]: 90 | Chickweed plant response rating ([3]; 8 g ai/ha): 0 | Chickweed plant response rating ([3]; 16 g ai/ha): 0 | Plant response rating, Chickweed ([3]; 31 g ai/ha, scale 0 to 100): 0 | Plant response rating, Chickweed [3, 10]: 0 | Barley plant response rating ([4]; 8 g ai/ha, 0-100 scale): 0 | Barley plant response rating [4, 11]: 0 | Plant response rating, Barley ([4]; 31 g ai/ha): 45 | Plant response rating, Barley ([4]; 62 g ai/ha): 45 | Plant response rating, Barnyardgrass [5, 12]: 100 | Plant response rating, Barnyardgrass [5, 13]: 100 | Plant response rating, Barnyardgrass [5, 14]: 20 | Plant response rating, Barnyardgrass [5, 15]: 100 | Plant response rating, Foxtail, Giant [6, 12]: 90 | Plant response rating, Foxtail, Giant [6, 13]: 100 | Plant response rating, Foxtail, Giant [6, 14]: 0 | Plant response rating, Foxtail, Giant [6, 15]: 100 | Plant response rating, Corn (corn (Zea mays); [12]): 0 | Plant response rating, Corn (corn (Zea mays); [13]): 100 | Plant response rating, Corn (corn (Zea mays); [14]): 0 | Plant response rating, Corn (corn (Zea mays); [15]): 40 | Plant response rating, Crabgrass, Large [7, 12]: 60 | Plant response rating, Crabgrass, Large [7, 13]: 100 | Plant response rating, Crabgrass, Large [7, 14]: 0 | Plant response rating, Crabgrass, Large [7, 15]: 70 | Wheat plant response rating [8, 16]: 40 | Wheat plant response rating [8, 17]: 55 | Plant response rating, Wheat [8, 18]: 90 | Plant response rating, Wheat [8, 19]: 95 | Wheat plant response rating [8, 20]: 0 | Plant response rating, Wheat [8, 21]: 0 | Plant response rating, Wheat [8, 22]: 20 | Wheat plant response rating [8, 23]: 0 | Nutsedge, Yellow plant response rating [9, 16]: 0 | Nutsedge, Yellow plant response rating [9, 17]: 0 | Plant response rating, Nutsedge, Yellow [9, 18]: 0 | Plant response rating, Nutsedge, Yellow [9, 19]: 0 | Nutsedge, Yellow plant response rating [9, 20]: 0 | Plant response rating, Nutsedge, Yellow [9, 21]: 0 | Plant response rating, Nutsedge, Yellow [9, 22]: 0 | Nutsedge, Yellow plant response rating [9, 23]: 0 | Oat, Wild plant response rating (wild oat (Avena fatua); [16]): 98 | Oat, Wild plant response rating (wild oat (Avena fatua); [17]): 100 | Plant response rating, Oat, Wild (wild oat (Avena fatua); [18]): 100 | Plant response rating, Oat, Wild (wild oat (Avena fatua); [19]): 100 | Oat, Wild plant response rating (wild oat (Avena fatua); [20]): 0 | Plant response rating, Oat, Wild (wild oat (Avena fatua); [21]): 80 | Plant response rating, Oat, Wild (wild oat (Avena fatua); [22]): 85 | Oat, Wild plant response rating (wild oat (Avena fatua); [23]): 30
